Test results published in US12410220B2, “Modulation of mammalian cell lineage by synthetic immodulins” (priority 2021, dated 2025).
Marks after values point to notes of the source that are not given here. Peptide text beside a SMILES is read from it.

Tests used:
[1] = target: T1, AA111-228 DNA-binding domain of RXR-alpha (RXRa-DBD) (Homo sapiens, UniProt P19793); assay: Experiment 4A binding to RXRa-DBD; details: 1 ug/well RXRa-DBD; 800 ng/well SA488-labelled peptide, 60 min; background subtracted
T1 construct: purchased Abcam, Cambridge, MA
T1 sequence (P19793 111-228): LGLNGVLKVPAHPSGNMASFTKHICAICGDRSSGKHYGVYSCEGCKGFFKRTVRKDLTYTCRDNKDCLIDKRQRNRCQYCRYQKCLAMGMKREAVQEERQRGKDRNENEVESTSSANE
Method: Experiment 4A. Binding of immodulin peptides to AA111-228 DNA-binding domain of RXR-alpha (RXRa-DBD). 1 ug/well recombinant RXRa-DBD (Abcam, Cambridge, MA) was adsorbed to wells of a 96-well plate for 60 minutes at room temperature, then blocked with 200 uL 1% bovine serum albumin (BSA) in PBS buffer overnight. Plate was washed and 800 ng/well Streptavidin-Alexa 488 conjugate (SA488)-labelled immX peptide was added. The plate was incubated for 60 min at room temperature, washed and counted in a standard fluorometer (excitation/emission 485/525 nm). Background (buffer alone) was subtracted.

RXR-alpha = target: T2, RXR-alpha (Homo sapiens, UniProt P19793); assay: Experiment 4B binding to full length RXR-alpha; details: 400 ng/well protein; 800 ng/well SA488-labelled peptide, 2 hours
T2 construct: 400 ng/well full length RXR-alpha, RXR-beta, RXR-gamma or PPAR-gamma; purchased Abcam, Cambridge, MA
T2 sequence (P19793 1-462): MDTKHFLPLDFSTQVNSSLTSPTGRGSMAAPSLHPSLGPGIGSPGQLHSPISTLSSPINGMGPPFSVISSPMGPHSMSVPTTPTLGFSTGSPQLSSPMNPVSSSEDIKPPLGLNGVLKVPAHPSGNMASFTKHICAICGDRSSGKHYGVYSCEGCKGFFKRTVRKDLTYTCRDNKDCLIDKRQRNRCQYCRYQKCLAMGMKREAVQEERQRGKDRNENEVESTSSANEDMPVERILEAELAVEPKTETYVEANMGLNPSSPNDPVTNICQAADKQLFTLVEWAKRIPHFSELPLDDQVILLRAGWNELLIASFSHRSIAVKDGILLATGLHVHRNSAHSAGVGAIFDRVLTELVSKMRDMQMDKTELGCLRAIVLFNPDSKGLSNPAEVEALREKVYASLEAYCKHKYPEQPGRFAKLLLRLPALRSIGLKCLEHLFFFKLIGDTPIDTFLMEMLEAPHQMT
Method: (§1) Experiment 4B. Binding of immodulin peptides to RXR isoforms and domains. 100 ng/well recombinant human RXRa-DBD or RXRa-LBD, or 400 ng/well full length RXR-alpha, RXR-beta, RXR-gamma or PPAR-gamma (Abcam, Cambridge, MA) was adsorbed to wells of a 96-well plate for 60 minutes at room temperature, then blocked with 200 uL 1% BSA in PBS buffer overnight. The plate was washed with PBS and 800 ng/well Streptavidin-Alexa 488 conjugate (SA488)-labelled peptide was added. The plate was incubated for 2 hours at room temperature, washed and counted in a fluorometer (excitation/emission 485/525 nm). Significant binding above background is also shown (**p<0.05). […] When tested against domains of RXR-alpha, these peptides bind the DNA-binding domain (DBD) better than the ligand-binding domain (LBD).

PPAR-gamma = target: T3, PPAR-gamma (Homo sapiens, UniProt P37231); assay: Experiment 4B binding to full length PPAR-gamma; details: 400 ng/well protein; 800 ng/well SA488-labelled peptide, 2 hours
T3 construct: 400 ng/well full length RXR-alpha, RXR-beta, RXR-gamma or PPAR-gamma; purchased Abcam, Cambridge, MA
T3 sequence (P37231 1-505): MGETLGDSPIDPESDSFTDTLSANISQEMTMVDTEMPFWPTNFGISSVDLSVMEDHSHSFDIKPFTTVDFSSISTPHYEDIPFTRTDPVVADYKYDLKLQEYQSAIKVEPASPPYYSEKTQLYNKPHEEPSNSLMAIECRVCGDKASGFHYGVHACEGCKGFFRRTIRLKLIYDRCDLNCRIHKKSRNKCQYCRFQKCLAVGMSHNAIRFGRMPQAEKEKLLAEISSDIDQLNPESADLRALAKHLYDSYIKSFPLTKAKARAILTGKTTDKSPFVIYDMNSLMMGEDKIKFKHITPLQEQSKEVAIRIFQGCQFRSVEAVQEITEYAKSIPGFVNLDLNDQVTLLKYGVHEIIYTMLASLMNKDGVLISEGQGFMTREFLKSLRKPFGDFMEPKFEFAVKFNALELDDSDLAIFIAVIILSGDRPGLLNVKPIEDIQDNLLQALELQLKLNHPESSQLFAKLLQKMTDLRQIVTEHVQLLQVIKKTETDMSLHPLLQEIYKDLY
Method: as §1

RXR-alpha DBD = target: T4, RXR-alpha DBD (Homo sapiens, UniProt P19793); assay: Experiment 4B binding to RXR-alpha DBD; details: 100 ng/well protein; 800 ng/well SA488-labelled peptide, 2 hours
T4 construct: purchased Abcam, Cambridge, MA
T4 sequence (P19793 111-228): T1 sequence (P19793 111-228)
Method: as §1

RXR-alpha LBD = target: T5, RXR-alpha LBD (Homo sapiens, UniProt P19793); assay: Experiment 4B binding to RXR-alpha LBD; details: 100 ng/well protein; 800 ng/well SA488-labelled peptide, 2 hours
T5 construct: purchased Abcam, Cambridge, MA
T5 sequence (P19793 227-458 limits assumed): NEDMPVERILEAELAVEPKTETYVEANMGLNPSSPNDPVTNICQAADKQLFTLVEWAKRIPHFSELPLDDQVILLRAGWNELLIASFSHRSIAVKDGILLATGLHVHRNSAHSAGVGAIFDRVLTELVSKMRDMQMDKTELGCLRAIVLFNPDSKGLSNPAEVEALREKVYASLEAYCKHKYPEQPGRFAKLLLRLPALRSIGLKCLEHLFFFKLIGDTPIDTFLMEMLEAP
Method: as §1

[2] = Experiment 4D binding to FITC-labelled hyaluronic acid; details: biotinylated peptide 1 ug/well; 1 ug FITC-labelled hyaluronic acid, 90 minutes
Method in brief: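 Biotinylated peptides (1 ug/well) bound to streptavidin plates for 60 min at room temperature, then 1 ug FITC-labelled heparin or hyaluronic acid in PBS added for 90 min at room temperature, in quadruplicate. After washes, fluorescence read at 488/525 nm and counts normalized to immX3 peptide binding = 100.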

SMILES | Fluorescence, binding to RXRa-DBD [1] | Binding to RXR-alpha relative to imm3 binding to RXR-gamma (=100) (RXR-alpha) | Binding to PPAR-gamma relative to imm3 binding (=100) (PPAR-gamma) | Binding to RXR-alpha DBD relative to imm3 binding (=100) (RXR-alpha DBD) | Binding to RXR-alpha LBD relative to imm3 binding (=100) (RXR-alpha LBD) | Hyaluronate binding, counts normalized for immX3 peptide binding=100 [2]
N=C(N)NCCC[C@H](NC(=O)[C@H](CCCNC(=N)N)NC(=O)[C@H](CCC(N)=O)NC(=O)CNC(=O)[C@H](CCC(N)=O)NC(=O)[C@H](CO)NC(=O)[C@H](CO)NC(=O)[C@H](CCCNC(=N)N)NC(=O)[C@H](CS)NC(=O)[C@H](CCC(N)=O)NC(=O)[C@H](CCCNC(=N)N)NC(=O)[C@H](CCCCN)NC(=O)[C@H](CCCNC(=N)N)NC(=O)[C@H](Cc1ccc(O)cc1)NC(=O)[C@H](Cc1ccccc1)NC(=O)CNC(=O)[C@H](CCCNC(=N)N)NC(=O)[C@@H](N)Cc1c[nH]cn1)C(=O)NCC(=O)N1CCC[C@H]1C(=O)N[C@@H](CS)C(=O)N[C@@H](Cc1c[nH]c2ccccc12)C(=O)O [imm6] (H-HRGFYRKRQCRSSQGQRRGPCW-OH; N-terminus and C-terminus assumed) | 587±192 | 12.9 ± 0.5** | 6.8 ± 2.0 | 22.9 ± 2.1** | 1.6 ± 1.4 | 44.9 ± 14.1**
CC[C@H](C)[C@H](NC(=O)CNC(=O)[C@H](CCCNC(=N)N)NC(=O)[C@H](CCCCN)NC(=O)[C@H](CCCNC(=N)N)NC(=O)CNC(=O)[C@H](CCCNC(=N)N)NC(=O)[C@H](CO)NC(=O)[C@@H]1CCCN1C(=O)[C@H](CCCCN)NC(=O)[C@H](CS)NC(=O)[C@H](CCC(N)=O)NC(=O)[C@H](CCCCN)NC(=O)[C@H](CCCNC(=N)N)NC(=O)[C@H](CCCCN)NC(=O)[C@H](Cc1ccc(O)cc1)NC(=O)[C@H](Cc1ccccc1)NC(=O)CNC(=O)[C@H](CCCCN)NC(=O)[C@@H](N)CCCNC(=N)N)C(=O)N[C@@H](CS)C(=O)N[C@@H](Cc1c[nH]c2ccccc12)C(=O)O [imm5] (H-RKGFYKRKQCKPSRGRKRGICW-OH; N-terminus and C-terminus assumed) | 6,802±336 | 17.2 ± 0.3** | 1.6 ± 0.4 | 22.7 ± 3.1** | 1.8 ± 1.9 | 60.0 ± 8.6**
CC(C)C[C@H](NC(=O)[C@H](C)NC(=O)[C@@H]1CCCN1C(=O)[C@H](Cc1c[nH]cn1)NC(=O)[C@H](CS)NC(=O)[C@H](CCC(N)=O)NC(=O)[C@H](CCCCN)NC(=O)[C@@H]1CCCN1C(=O)[C@H](Cc1c[nH]cn1)NC(=O)[C@H](Cc1ccccc1)NC(=O)[C@H](CC(N)=O)NC(=O)CNC(=O)[C@H](CC(N)=O)NC(=O)[C@@H](N)CCCNC(=N)N)C(=O)N[C@@H](CC(=O)O)C(=O)NCC(=O)N[C@@H](CCC(N)=O)C(=O)N[C@@H](CCCNC(=N)N)C(=O)NCC(=O)N[C@@H](CCCCN)C(=O)N[C@@H](CS)C(=O)N[C@@H](Cc1c[nH]c2ccccc12)C(=O)O [imm4] (H-RNGNFHPKQCHPALDGQRGKCW-OH; N-terminus and C-terminus assumed) | 27±31 | 3.6 ± 1.3 | 0.1 ± 0.0 | 3.2 ± 2.0 | 3.0 ± 1.3 | 14.6 ± 22.6
N=C(N)NCCC[C@H](NC(=O)CNC(=O)[C@H](CCCCN)NC(=O)[C@H](CO)NC(=O)[C@@H]1CCCN1C(=O)[C@H](CCCNC(=N)N)NC(=O)[C@H](CS)NC(=O)[C@H](CCC(N)=O)NC(=O)[C@H](CCCCN)NC(=O)[C@H](CCCCN)NC(=O)[C@H](CCCCN)NC(=O)[C@H](Cc1ccc(O)cc1)NC(=O)[C@H](Cc1ccccc1)NC(=O)CNC(=O)[C@H](CCCCN)NC(=O)[C@@H](N)CCCCN)C(=O)N[C@@H](CCCCN)C(=O)N[C@@H](CCCNC(=N)N)C(=O)NCC(=O)N[C@@H](Cc1ccccc1)C(=O)N[C@@H](CS)C(=O)N[C@@H](Cc1c[nH]c2ccccc12)C(=O)O [imm3] (H-KKGFYKKKQCRPSKGRKRGFCW-OH; N-terminus and C-terminus assumed) | 6,572±129 | 11.2 ± 1.0** | 2.1 ± 1.4 | 22.2 ± 2.4** | 0.6 ± 1.5 | 57.2 ± 5.7**
